The target in data set [1] is T1, Fructose-1,6-bisphosphatase 1 (Homo sapiens, UniProt P09467).
T1 sequence (P09467 whole entry): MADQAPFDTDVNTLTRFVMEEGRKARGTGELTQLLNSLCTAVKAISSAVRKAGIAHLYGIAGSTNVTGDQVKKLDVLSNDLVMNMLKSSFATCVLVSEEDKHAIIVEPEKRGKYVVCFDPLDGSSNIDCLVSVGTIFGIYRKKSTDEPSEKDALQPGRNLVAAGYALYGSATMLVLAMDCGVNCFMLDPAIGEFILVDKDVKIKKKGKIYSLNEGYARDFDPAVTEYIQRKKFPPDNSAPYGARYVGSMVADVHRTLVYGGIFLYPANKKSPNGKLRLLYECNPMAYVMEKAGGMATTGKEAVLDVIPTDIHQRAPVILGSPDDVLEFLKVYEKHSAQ
The experiment in a line: Inhibition of human liver FBPase by spectrophotometric method. The class given is tissue-based.

For data set [2], the target named is T1, Fructose-1,6-bisphosphatase 1. Description: Inhibition of human liver FBPase.
Data set [3] has the same target. Description: Inhibition of human liver FBPase expressed in Escherichia coli BL21 (DE3) measured after 48 hrs by spectrophotometry analysis.
Data set [4] has the same target. The experiment in a line: biochemical.
Another data set relates to Hepatocyte. Description: Inhibition of glucose production in human hepatocyte assessed as reduction in […]. The data set is classed as functional, cell-based.
Data set [5] in a line: Half life in Cynomolgus monkey at 10 mg/kg, po. The class given is ADME, organism-based, Macaca fascicularis. The note with it: in vivo.
Data set [6] in a line: Inhibition of Cynomolgus monkey FBPase. Also on record: species or system Macaca fascicularis.
A short description of data set [7]: Inhibition of rat FBPase.
The nature of data set [8]: Oral bioavailability in cynomolgus monkey at 10 mg/kg. The data set is classed as ADME, organism-based, Macaca fascicularis. The following applies: in vivo.
The nature of data set [9]: Tmax in Cynomolgus monkey at 10 mg/kg, po upto 24 hrs by LC/MS/MS analysis. The data set is classed as ADME, organism-based, Macaca fascicularis. The note with it: in vivo.
Another data set concerns Mus musculus. The experiment in a line: Hypoglycemic activity in db/db mouse assessed as reduction in blood glucose level at 300 mg/kg, po administered for 5 days. The note with it: time 5 day. The class given is functional.
Data set [10] can be described thus: Cmax in Cynomolgus monkey at 10 mg/kg, po measured after 3 hrs by LC/MS/MS analysis. The data set is classed as ADME, organism-based, Macaca fascicularis. Also noted: dose 10 mg/kg, time 3 hrs, route po. The following applies: in vivo.
The next data set relates to Rattus norvegicus. The experiment in a line: Hypoglycemic activity in ZDF rats assessed as reduction in blood glucose level at 10 to 300 mg/kg, po. The data set is classed as functional. The following applies: dose 10-300 mg/kg.

In general, pIC50 refers to −log10 of the IC50, conventionally taken in molar units. As usually defined, the Km is the substrate concentration at which the rate is half of its maximum. A word on the pEC50: it is the negative decadic logarithm of the EC50, by convention in mol/L. By half-life is commonly meant how long it takes for the measured level to halve. What is called bioavailability is dose-corrected exposure relative to a reference, in per cent. The term Tmax denotes the time at which the peak concentration occurs. What is called Cmax is the maximum level reached in the sampled fluid or tissue.

Structures are written as SMILES. pEC50, pIC50: −log10 of the molar value.

Description for Oryctolagus cuniculus: Binding affinity to recombinant rabbit FBPase expressed in Escherichia coli assessed as maximal activity

In [1], `CCCC(C)C(=O)c1sc(N)nc1-c1ccc(P(=O)(O)O)o1` (stereo unspecified) gave a pIC50 of 7.96.
Consider `CCOc1cc2ncnc(Nc3cccc(Cl)c3)c2cc1OCC`, for which, in the data set listed under Oryctolagus cuniculus, the Km turned out to be 2.7 µM.
Regarding `CSc1nc(N)c2nc(-c3ccc(P(=O)(O)O)o3)n(CC(C)(C)C)c2n1`, the pIC50 in data set [1] is 6.15.
On the same count and under the same terms, the same measure for `CC(C)Cn1c(C2CCC(P(=O)(O)O)O2)nc2c(N)c(F)cc(CCBr)c21` (stereo unspecified): 7.47.
In data set [2], `COc1ccc(CC(=O)Nc2cccc(-c3nnc(-c4cccc(Cl)c4)o3)c2)cc1OC` showed a pIC50 of 4.81.
Consider `CC1SC(=O)NN=C1c1ccc2[nH]c(-c3ccc(-n4ccnc4)cc3)nc2c1` (stereo unspecified), for which the pIC50 in data set [1] is 4.44.
For `COC(=O)c1ccc(S(=O)(=O)n2cccc2)cc1`, the pIC50 in data set [3] was 7.49.
As to `CC1=CC=CN2C(CC(C)C)C(c3ccc(P(=O)(O)O)o3)=NC12` (stereo unspecified), in data set [1], the pIC50 was 5.80.
`O=P(O)(O)OC[C@H]1O[C@H](COP(=O)(O)O)[C@@H](O)[C@@H]1O` gave a pIC50 in data set [1] of 5.70.
In turn, `CSc1nc(N)c2nc(-c3ccc(P(=O)(O)O)o3)n(CC(C)C)c2n1` had a pIC50 in data set [4] of 3.15.
As for `COc1ccc(CC(=O)Nc2cccc(-c3nnc(-c4ccc(C)cc4)o3)c2)cc1OC`, the pIC50 in [2] is 5.35.
Consider `N#Cc1ccc(C(C(=O)NCCc2ccc(O)cc2)N2C(=O)C3Cc4ccc(O)cc4CN3C(=O)C2CC2CCCCC2)cc1` (stereo unspecified), for which the pIC50 in data set [1] was 6.43.
On to `CC(C)(C)C(=O)c1sc(N)nc1-c1ccc(P(=O)(O)O)o1`, for which the pEC50 in the data set with Hepatocyte is 6.85. The same molecule had a half-life in [5] of 7.6 h. Further, the values for the pIC50 in data set [6] and in data set [7] were 6.92 and 6.72, respectively. In [8], the bioavailability came out at 52%. The Tmax in [9] came out at 3.3 h. In addition, the figures for the Activity in the data set with Mus musculus and with Rattus norvegicus were 350 mg/dL and 200 mg/dL, respectively. In addition, in data set [10], the Cmax came to 2100 ng/mL.
